The assay deals with T1, human ferroportin (Homo sapiens, UniProt Q9NP59).
T1 construct: luciferase reporter (probably NanoLuc: read with the Nano-Glo Luciferase Assay System); expressed in transfected cells; host or cells: CHO cells, stably transfected, doxycycline-inducible expression
T1 sequence (Q9NP59 1-571): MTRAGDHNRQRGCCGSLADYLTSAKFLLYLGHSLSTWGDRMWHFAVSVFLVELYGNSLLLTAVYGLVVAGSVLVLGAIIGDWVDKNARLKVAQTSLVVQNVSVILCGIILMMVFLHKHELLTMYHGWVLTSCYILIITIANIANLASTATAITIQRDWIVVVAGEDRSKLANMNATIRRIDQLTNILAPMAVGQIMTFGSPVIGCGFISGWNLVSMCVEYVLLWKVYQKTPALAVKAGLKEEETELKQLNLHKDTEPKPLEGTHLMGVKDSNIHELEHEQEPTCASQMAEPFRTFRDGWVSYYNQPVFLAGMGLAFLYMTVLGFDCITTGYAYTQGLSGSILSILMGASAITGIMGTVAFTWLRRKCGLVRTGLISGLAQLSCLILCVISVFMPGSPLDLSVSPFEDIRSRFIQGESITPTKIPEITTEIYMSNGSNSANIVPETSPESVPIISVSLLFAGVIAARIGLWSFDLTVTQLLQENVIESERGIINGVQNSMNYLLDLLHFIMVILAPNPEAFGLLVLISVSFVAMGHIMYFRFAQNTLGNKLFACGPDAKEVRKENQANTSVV
In words: In-vitro ferroportin internalization assay (luciferase reporter). In kind it is cell-based. The note with it: average pEC50; stably-transfected CHO cell line expressing human ferroportin tagged to a luciferase reporter; 6 h incubation with test compounds. As for the experimental part:
The protocol for this assay is generally as described in WO2018/128828, incorporated herein by reference in its entirety. Functional internalization of ferroportin protein was measured using a stably-transfected CHO cell line expressing the human ferroportin tagged to a luciferase reporter. Cells were plated for 24 h in the presence of ferric ammonium citrate (FAC). Ferroportin protein expression was induced with doxycycline for 24 h. The next day, the compounds were added. Test compounds were dissolved in DMSO. Cells were incubated with the test compounds for 6 h, and subsequently luciferase activity was measured using the Nano-Glo Luciferase Assay System and Glomax (Promega, Madison, Wis.).
The average pEC50 was determined for the test compounds.
On the technique in general: In a reporter assay the amount or activity of a reporter protein is the signal.
As usually defined, the pEC50 is the EC50 on a negative log10 scale, so that one unit is a factor of ten. Regarding `COC(=O)c1ccc2[nH]c(CCNCCc3nc4c(NCc5ncccc5F)ncnc4s3)nc2c1` [Compound 27, Methyl 2-(2-{[2-(7-{[(3-fluoropyridin-2-yl)methyl]amino}-[1,3]thiazolo[5,4-d]pyrimidin-2-yl)ethyl]amino}ethyl)-1H-1,3-benzodiazole-5-carboxylate], the pEC50 is listed as 6.2. For `C[C@@H](Cc1nc2c(NCc3ncccc3F)ncnc2s1)NCCc1nc2ccccc2[nH]1` [Compound 28, 2-[(2S)-2-{[2-(1H-1,3-benzodiazol-2-yl)ethyl]amino}propyl]-N-[(3-fluoropyridin-2-yl)methyl]-[1,3]thiazolo[5,4-d]pyrimidin-7-amine] the value was 6.3; for `CC(=O)NOc1nc(NCc2ncccc2F)c2nc(CCNCCc3nc4ccccc4[nH]3)sc2n1` [Compound 29, N-{[2-(2-{[2-(1H-1,3-benzodiazol-2-yl)ethyl]amino}ethyl)-7-{[(3-fluoropyridin-2-yl)methyl]amino}-[1,3]thiazolo[5,4-d]pyrimidin-5-yl]oxy}acetamide], 5.2. `Fc1cccnc1CNc1ncnc2sc(C(F)CNCCc3nc4ccccc4[nH]3)nc12` (stereo not shown) [Compound 30, 2-(2-{[2-(1H-1,3-benzodiazol-2-yl)ethyl]amino}-1-fluoroethyl)-N-[(3-fluoropyridin-2-yl)methyl]-[1,3]thiazolo[5,4-d]pyrimidin-7-amine] returned a pEC50 of 7.3. For `Cc1nc(NCc2ncccc2F)c2nc(CCNCCc3nc4ccccc4[nH]3)sc2n1` [Compound 31, 2-(2-{[2-(1H-1,3-benzodiazol-2-yl)ethyl]amino}ethyl)-N-[(3-fluoropyridin-2-yl)methyl]-5-methyl-[1,3]thiazolo[5,4-d]pyrimidin-7-amine] the value was 5.6; for `[N-]=[N+]=Nc1cccnc1CNc1ncnc2sc(CCNCCc3nc4cc(I)ccc4[nH]3)nc12` [Compound 32, N-[(3-azidopyridin-2-yl)methyl]-2-(2-{[2-(5-iodo-1H-1,3-benzodiazol-2-yl)ethyl]amino}ethyl)-[1,3]thiazolo[5,4-d]pyrimidin-7-amine], 6.9; for `Fc1cccnc1CNc1ncnc2sc(CCNCCc3nc4ncccc4[nH]3)nc12` [Compound 33, N-[(3-fluoropyridin-2-yl)methyl]-2-{2-[(2-{1H-imidazo[4,5-b]pyridin-2-yl}ethyl)amino]ethyl}-[1,3]thiazolo[5,4-d]pyrimidin-7-amine], 6.2. For `O=c1c2ccccc2[nH]n1CCNCCc1nc2c(NCc3ncccc3F)ncnc2s1` [Compound 34, 2-(2-{[2-(7-{[(3-fluoropyridin-2-yl)methyl]amino}-[1,3]thiazolo[5,4-d]pyrimidin-2-yl)ethyl]amino}ethyl)-2,3-dihydro-1H-indazol-3-one] the value was 5.1; for `Fc1cccnc1CNc1ncnc2sc(CCNCCc3ncc(-c4ccccc4)[nH]3)nc12` [Compound 35, N-[(3-fluoropyridin-2-yl)methyl]-2-(2-{[2-(5-phenyl-1H-imidazol-2-yl)ethyl]amino}ethyl)-[1,3]thiazolo[5,4-d]pyrimidin-7-amine], 7.1. The result for `Oc1nc(NCc2ncccc2F)c2nc(CCNCCc3nc4ccccc4[nH]3)oc2n1` [Compound 36, 2-(2-{[2-(1H-1,3-benzodiazol-2-yl)ethyl]amino}ethyl)-7-{[(3-fluoropyridin-2-yl)methyl]amino}-[1,3]oxazolo[5,4-d]pyrimidin-5-ol] reads 6.4. The compound `Fc1cccnc1CNc1ncnc2sc(CCNCCc3nc4cnccc4[nH]3)nc12` [Compound 37, N-[(3-fluoropyridin-2-yl)methyl]-2-{2-[(2-{1H-imidazo[4,5-c]pyridin-2-yl}ethyl)amino]ethyl}-[1,3]thiazolo[5,4-d]pyrimidin-7-amine] registered a pEC50 of 5.6. `CC(NCCc1nc2c(NCc3ncccc3F)ncnc2s1)c1ccccc1O` (stereo not shown) [Compound 38, 2-(1-{[2-(7-{[(3-fluoropyridin-2-yl)methyl]amino}-[1,3]thiazolo[5,4-d]pyrimidin-2-yl)ethyl]amino}ethyl)phenol] returned a pEC50 of 4.9. For `C#CCCC1(CCC(=O)NCc2ccc3[nH]c(CCNCCc4nc5c(NCc6ncccc6F)ncnc5s4)nc3c2)N=N1` [Compound 39, 3-[3-(but-3-yn-1-yl)-3H-diazirin-3-yl]-N-{[2-(2-{[2-(7-{[(3-fluoropyridin-2-yl)methyl]amino}-[1,3]thiazolo[5,4-d]pyrimidin-2-yl)ethyl]amino}ethyl)-1H-1,3-benzodiazol-5-yl]methyl}propanamide] the value was 6.9; for `CC(Cc1nc2ccccc2[nH]1)NCCc1nc2c(NCc3ncccc3F)ncnc2s1` (stereo not shown) [Compound 40, 2-(2-{[1-(1H-1,3-benzodiazol-2-yl)propan-2-yl]amino}ethyl)-N-[(3-fluoropyridin-2-yl)methyl]-[1,3]thiazolo[5,4-d]pyrimidin-7-amine], 6.2; for `CC(CNCCc1nc2c(NCc3ncccc3F)ncnc2s1)c1nc2ccccc2[nH]1` (stereo not shown) [Compound 41, 2-(2-{[2-(1H-1,3-benzodiazol-2-yl)propyl]amino}ethyl)-N-[(3-fluoropyridin-2-yl)methyl]-[1,3]thiazolo[5,4-d]pyrimidin-7-amine], 7.2. For `Fc1cccnc1CNc1ncnc2sc(CCNCCc3ncc[nH]3)nc12` [Compound 42, N-[(3-fluoropyridin-2-yl)methyl]-2-(2-{[2-(1H-imidazol-2-yl)ethyl]amino}ethyl)-[1,3]thiazolo[5,4-d]pyrimidin-7-amine] the value was 7.3; for `Fc1cccnc1CNc1ncnc2sc(CCNCCc3ncc(Cc4ccccc4)[nH]3)nc12` [Compound 43, 2-(2-{[2-(5-benzyl-1H-imidazol-2-yl)ethyl]amino}ethyl)-N-[(3-fluoropyridin-2-yl)methyl]-[1,3]thiazolo[5,4-d]pyrimidin-7-amine], 8.4. For `Oc1ccccc1CCNCCc1nc2c(NCc3ncccc3F)ncnc2s1` [Compound 44, 2-(2-{[2-(7-{[(3-fluoropyridin-2-yl)methyl]amino}-[1,3]thiazolo[5,4-d]pyrimidin-2-yl)ethyl]amino}ethyl)phenol] the value was 4.9; for `Fc1cccnc1CNc1ncnc2sc(CCNCC(F)c3nc4ccccc4[nH]3)nc12` (stereo not shown) [Compound 45, 2-(2-{[2-(1H-1,3-benzodiazol-2-yl)-2-fluoroethyl]amino}ethyl)-N-[(3-fluoropyridin-2-yl)methyl]-[1,3]thiazolo[5,4-d]pyrimidin-7-amine], 6.4; for `Cc1cc2nc(CCNCCc3nc4c(NCc5ncccc5F)ncnc4s3)[nH]c2cc1C` [Compound 46, 2-(2-{[2-(5,6-dimethyl-1H-1,3-benzodiazol-2-yl)ethyl]amino}ethyl)-N-[(3-fluoropyridin-2-yl)methyl]-[1,3]thiazolo[5,4-d]pyrimidin-7-amine], 7.1. `O=C(CCC1(CCc2cn(CCCNC(=O)c3ccc4c(c3)C3(OC4=O)c4ccc(O)cc4Oc4cc(O)ccc43)nn2)N=N1)Nc1ccc2[nH]c(CCNCCc3nc4c(NCc5ncccc5F)ncnc4s3)nc2c1` [Compound 47, N-[3-(4-{2-[3-(2-{[2-(2-{[2-(7-{[(3-fluoropyridin-2-yl)methyl]amino}-[1,3]thiazolo[5,4-d]pyrimidin-2-yl)ethyl]amino}ethyl)-1H-1,3-benzodiazol-5-yl]carbamoyl}ethyl)-3H-diazirin-3-yl]ethyl}-1H-1,2,3-triazol-1-yl)propyl]-3′,6′-dihydroxy-3-oxo-3H-spiro[2-benzofuran-1,9′-xanthene]-6-carboxamide] showed a pEC50 of 5.8. For `Fc1cccnc1CNc1nccc2oc(CCNCCc3ncc(-c4ccccc4)[nH]3)nc12` [Compound 48, N-[(3-fluoropyridin-2-yl)methyl]-2-(2-{[2-(5-phenyl-1H-imidazol-2-yl)ethyl]amino}ethyl)-[1,3]oxazolo[4,5-c]pyridin-4-amine] the value was 7; for `Fc1cccnc1CNc1ncnc2sc(CCNCc3nc(-c4ccccc4)c[nH]3)nc12` [Compound 49, N-[(3-fluoropyridin-2-yl)methyl]-2-(2-{[(4-phenyl-1H-imidazol-2-yl)methyl]amino}ethyl)-[1,3]thiazolo[5,4-d]pyrimidin-7-amine], 6.9.

Compound `OC(CNCCc1nc2c(NCc3ncccc3F)ncnc2s1)c1nc2ccccc2[nH]1` (stereo not shown) [Compound 50, 1-(1H-1,3-benzodiazol-2-yl)-2-{[2-(7-{[(3-fluoropyridin-2-yl)methyl]amino}-[1,3]thiazolo[5,4-d]pyrimidin-2-yl)ethyl]amino}ethan-1-ol] returned a pEC50 of 5.1. The result for `Fc1cccnc1CNc1ncnc2sc(CCNCCc3ncc(C4CC4)[nH]3)nc12` [Compound 51, 2-(2-{[2-(5-cyclopropyl-1H-imidazol-2-yl)ethyl]amino}ethyl)-N-[(3-fluoropyridin-2-yl)methyl]-[1,3]thiazolo[5,4-d]pyrimidin-7-amine] reads 8.2.

The values are drawn from patent publication US11286243B2 (GLOBAL BLOOD THERAPEUTICS, INC., priority 2018, dated 2022).
